For series [1], the system named is Pseudomonas aeruginosa ATCC 27853. Conditions: ATCC 27853, 48 h.
Series [2] relates to Blautia coccoides ATCC 29236. As to conditions: ATCC 29236, 48 h.
The next series has as its system Micrococcus luteus 272. Kind of series: MIC, broth microdilution. Conditions: two-fold dilution series from 1.050 mM stock in Mueller-Hinton Broth or Brucella Broth; 5.10^5 CFU/mL; visible growth after 24 or 48 h. Type of series: cell-based.
The test system of series [3] is Enterococcus faecalis ATCC 29212. Conditions: ATCC 29212, 48 h.
Series [4] has as its system Staphylococcus aureus ATCC 25923. Conditions: ATCC 25923, 48 h.
The test system of series [5] is Listeria monocytogenes ATCC 15313. Conditions: ATCC 15313, 48 h.
In series [6] the test system is Listeria ivanovii ATCC 19119. Conditions: ATCC 19119, 48 h.
The format of series [7] is in vitro ADME. The method, then:
The dynamic GI TIM-1 Model (TNO Nutrition and Food Research Institute, Zeist, the Netherlands) described previously by was used for evaluation of peptide digestibility. Gastric pH began at 4.5 and decreased gradually to 3.6 after 20 min, 2.7 after 40 min and 2.0 after 60 min of digestion by injecting 0.5 mol/L HCl, finally reaching 1.7 after 120 min. The pH of the duodenal, jejunal and ileal compartments was adjusted to 6, 6.8 and 7.2, respectively, by injecting 0.5 mol/L sodium bicarbonate solution. Gastric secretions consisted of pepsin (0.163 mg/mL) from porcine gastric mucosa (EC 3.4.23.1; Sigma-Aldrich Canada Ltd., Oakville, ON, Canada) and lipase (0.133 mg/mL) from Rhizopus oryzae (EC 3.1.1.3; Amano Pharmaceuticals, Nagoya, Japan), both in an electrolyte solution (NaCl, 6.2 g/L; KCl, 2.2 g/L; CaCl2, 0.3 g/L; NaHCO3, 1.5 g/L) delivered at a flow rate of 0.25 mL/min. […]
To check the digestibility of the synthetic GAPDH-related derived peptide, TIM samples were separated by SPE-C18 before analysis by FPLC with ionic exchange column (IEX). […] The absorbance was recorded at 214 nm and collected fractions were screened for sequence peptides by LC-MS/MS analysis as described above.

Series [8] concerns Escherichia coli ATCC 25922. As to conditions: ATCC 25922, 48 h.
Series [9] relates to Bacteroides thetaiotaomicron ATCC 29741. Conditions: two-fold dilution series from 1.050 mM stock in Mueller-Hinton Broth or Brucella Broth; 5.10^5 CFU/mL; visible growth after 24 or 48 h.
Series [10] deals with Lactobacillus acidophilus ATCC 4356. Kind of series: MIC, broth microdilution. Type of series: cell-based. As to conditions: two-fold dilution series from 1.050 mM stock in Mueller-Hinton Broth or Brucella Broth; 5.10^5 CFU/mL; visible growth after 24 or 48 h.
Series [11] concerns Vibrio parahaemolyticus ALN-0312. Conditions: 48 h.
In another series the test system is Bacillus megaterium B301. Conditions: Bacillus B301, 48 h.
The next series deals with Enterococcus faecium L1. As to conditions: L1, 48 h.
The subject of series [12] is Bifidobacterium infantis ATCC 15697. As to conditions: ATCC 15697, 48 h.
The test system of a further series is gastric pepsin. Conditions: upper gastrointestinal conditions; cited from earlier work. An excerpt: Food additives such as AMPs must be safe for the human microbiota and the environment. Consequently, knowing the digestibility of AMPs in the human gastrointestinal tract is critical and should not be underestimated. The TIM-1 model used to evaluate the stability of the synthetic peptide simulated the major GI stress conditions, such as gastric acid environment, excretion of proteolytic enzymes and bile salts, and peristaltic movements.

No end group written: not given here.

In general, MIC refers to the lowest concentration that inhibits growth of the organism.

Consider KVEIVAINDPFIDL [AMGAP], for which the MIC is more than 1050 µM in [1]; more than 1050 µM in [2]; 263 µM in the series with Micrococcus luteus 272; more than 1050 µM in series [3]; more than 1050 µM in series [4]; 131 µM in [5]. In addition, the MIC in [6] is 131 µM; in [8], more than 1050 µM; in series [9], 263 µM; in [10], 263 µM; in [11], more than 1050 µM; with Bacillus megaterium B301, more than 1050 µM. Besides, the MIC (against Enterococcus faecium L1; in [12]) was more than 1050 µM in each case. In series [7], the “Proportion of intact synthetic peptide in the effluent fraction” value turned out to be 2%. Besides, the “Sensitivity to the digestive process” value in series [7] (pH 2.7) is reported as “sensitive”.

“pediocin PA-1: pediocin PA-1, compared for stability under upper gastrointestinal conditions (KYYGNGVTCGKHSCSVDWGKATTCIINNGAMAWATGGHQGNHKC; ends and bridges not checked; cysteine pairing not given here; UniProt P29430 19-62, looked up)”: in the series with gastric pepsin, the “Stability with gastric pepsin combined with low pH” value was “reduced its stability”.

The values are drawn from paper PMC6669513, “Identification of A Novel Antibacterial Peptide from Atlantic Mackerel belonging to the GAPDH-Related Antimicrobial Family and Its In Vitro Digestibility” (Marine Drugs, 2019).
